The values below come from patent US9687493B2, “Use of NK-1 receptor antagonists for treating hypomagnesemia, neurogenic inflammation, and cardiac dysfunction associated with EGFR-blocking drugs” (THE GEORGE WASHINGTON UNIVERSITY, priority 2014, dated 2017).

Series [1] concerns nitro-tyrosine in cardiac tissue. Nature of the series: Cardiac nitro-tyrosine immunohistochemical assessment. Format: in vivo, Sprague-Dawley rats. On the procedure: Cardiac tissue was rapidly excised, rinsed in saline, embedded in OCT compound, quickly frozen and kept at […] until used. Cryosections, 5 um thick, were stained by an indirect, immunohistochemical staining method (13) using rabbit anti-rat Nitrotyrosine antibody (5 ug/ml; Millipore, Billerica, Mass.) and the Vecta-Stain Elite ABC kit immunoperoxidase system (Vector Laboratories, Burlingame, Calif.). Samples were examined under an Olympus BX60 microscope, and multiple images were taken with a digital camera (Evolution Color MP; Media Cybernetics, Silver Spring, Md.). Briefly, fresh frozen sections were fixed in 10% formaldehyde, washed in PBS, incubated with 0.3% hydrogen peroxide in methanol for 30 min to block endogenous peroxidase, washed in PBS and incubated overnight at 4 C with rabbit anti nitrotyrosine antibody, which was applied on every slide except negative control. ABC kit reagents for horseradish peroxidase and 3-3′diaminebenzidine (DAB) were used to visualize the antigen-antibody reaction product as brown color. The sections were counterstained with hematoxylin, rinsed, dehydrated and cleared in series of ethanol and xylene and coverslipped.

Series [2] is described as follows: Plasma magnesium by atomic absorption flame emission spectroscopy. Format: in vivo, Sprague-Dawley rats. To be noted: for change in circulating Mg level vs time-matched control: erlotinib starting 10 mg/kg/day oral. Here is the method: Individually-housed rats were weighed and food consumption recorded daily to obtain actual drug dosage: time-range average erlotinib dose over 9 weeks was 7.07 mg/kg/day, and time-range average Emend dose over 9 weeks was 1.41 mg/kg/day.
Magnesium levels in 1:50 or 1:100 diluted, acidified (nitric acid) plasma samples were determined by atomic absorption flame emission spectroscopy (wavelength=285.2 nm) using an AA-6200 Shimadzu spectrophotometer (Columbia, Md.) as described (13). Values obtained from standard curves were mg/dl, and reported as % of control.
Plasma was assessed for magnesium by flame emission atomic absorption spectroscopy (FIG. 2A). Data are the means±SEM of 5-7 animals per group. * p<0.05, **p<0.01 and # p<0.001 compared with the time-matched control group; +p<0.055 versus erlotinib alone. Plasma SP (FIG. 2B) was assessed by a colorimetric ELISA kit.

For series [3] the following is noted: rat, in vivo. Here is the method:
Experiments on animals were conducted in accordance with the principles given in the US Department of Health and Human Services Guide for the Care and Use of Laboratory Animals and were approved by The George Washington University Institutional Animal Care and Use Committee. Male Sprague-Dawley rats (125-150 g) were purchased from Hilltop Lab Animals, Inc. (Scottdale, Pa.). After 1 week of quarantine, all age-matched rats were placed on an ad libitum Mg normal diet (25 mmole magnesium oxide/kg food regarded as 100% recommended daily allowance for rodents) obtained from Harlan-Teklad (Madison, Wis.) containing extracted casein as the diet base supplemented with essential vitamins and nutrients; or the same diet supplemented with erlotinib (OSI Pharmaceuticals, LLC, Northbrook, Ill. 60062, USA) to obtain a starting dose of 10 mg/kg/day, Emend® (as aprepitant, Merck & Co., INC. USA) to obtain a starting dose of 2 mg/kg/day, or both agents at these doses. Individually-housed rats were weighed and food consumption recorded daily to obtain actual drug dosage: time-range average erlotinib dose over 9 weeks was 7.07 mg/kg/day, and time-range average Emend dose over 9 weeks was 1.41 mg/kg/day. Rats had free access to distilled-deionized water, and were on a 12 h light/dark cycle for up to 9 weeks. […]

For series [4] the following is noted: male, Sprague-Dawley, rat, in vivo, 9 weeks. Here is the method:
Male Sprague-Dawley rats (˜150 g) were purchased from Hilltop Lab Animals (Scottdale, Pa.). After one week of quarantine, the rats were divided into 4 groups: (1) Control group (N=5) receiving Mg normal diet (25 mmole Mg Oxide/kg food); (2) Erlotinib treated group (N=5, receiving erlotinib at a starting dose of 10 mg/kg/day in the diet); (3) Erlotinib+Emend group (N=7, receiving erlotinib plus Emend at a starting dose of 2 mg/kg/day in the diet); and (4) Emend alone group (N=5).

In a further series the test system is cancer cells. To be noted: through NOX-4 up-regulation; cited from earlier work.

For `C[C@@H](O[C@H]1OCCN(Cc2n[nH]c(=O)[nH]2)[C@H]1c1ccc(F)cc1)c1cc(C(F)(F)F)cc(C(F)(F)F)c1` [Emend, aprepitant], the “nitro-tyrosine formation in the ventricles” value in series [1] (9 wk, Emend co-treatment with erlotinib) is given as “visibly attenuated”. The nitro-tyrosine formation entry in series [1] (rat, in vivo) is given as “did not have any effect”. Further, in series [2] (9 week, Emend (starting 2 mg/kg/day) co-treatment with erlotinib), the “attenuation of severity of hypomagnesemia due to erlotinib” value is on record as around 42%. Besides, in series [3], the “food consumption compared to controls” value is listed as “Neither ERL nor Emend affected food consumption”.

On to `C#Cc1cccc(Nc2ncnc3cc(OCCOC)c(OCCOC)cc23)c1` [Erlotinib, erlotinib], for which the “number of animals that developed facial lesion” value in series [4] is on record as 5. Also, the cellular oxidative stress entry with cancer cells was “can provoke cellular oxidative stress”. In series [1] (9 wk of Erlotinib treatment), the “cardiac nitro-tyrosine (NT) presence, immunohistochemical staining” value was “substantial perivascular and diffused NT presence”. Moreover, the “change in circulating Mg level vs time-matched control” value is −2% in series [2] (1.5 week); −26% in series [2] (9 weeks, p<0.001); −9% in series [2] (wk 3); −13% in series [2] (wk 5); −16% in series [2] (wk 7). In addition, the “food consumption compared to controls” value in series [3] was “Neither ERL nor Emend affected food consumption”.
